Experiment: Encapsulation efficiency by 1H NMR analysis of nanoparticles
Type: physicochemical
Conditions: DMF internal standard, DMSO-d6, agent within the nanoparticle delivery system
Experimental: For the ^1H NMR analysis, the nanoparticle suspension was centrifuged at 3214 rcf for 30 min. The supernatant was decanted. DMF was added to the precipitate as the internal reference for ^1H NMR analysis and weighed the amount added. DMSO-d6, was added and heated to 60° C. to dissolve the sample. The ^1H NMR was performed at 60° C.

Compound | encapsulation efficiency
CCC(=O)OC/C=C(C)/C=C/C=C(C)/C=C/C1=C(C)CCCC1(C)C [vitamin A-propionate, retinyl propionate] | 42.7%
CCCCCCCC/C=C\CCCCCCCC(=O)O [oleic acid] | 19%

— patent publication US20230017661A1, “COMPOSITIONS AND MODULAR NANO- AND MICROPARTICLES FOR THE DELIVERY OF VARIOUS AGENTS AND USE THEREOF” (Veri Nano Inc., priority 2019, published 2023)
